US9265766B2, “Methods for altering mRNA splicing and treating familial dysautonomia by administering benzyladenine” (The General Hospital Corporation, priority 2003, dated 2016)
“Also recorded” adds a separate entry of the source. Read-outs that look alike come from different tables or passages of the source.

Assays:
[1] = system: rat liver and kidney tissue; details: in vivo, po; cited from earlier work
[2] = system: IKBKAP WT:MU transcript ratio; test: IKBKAP nonsense mediated decay analysis (cycloheximide) in FD lymphoblast cell lines; assay type: cell-based, human; details: 50 μg/ml cycloheximide, four hours, FD cells
Protocol: RT-PCR amplification and fractionation of the amplified product on a 1.5% agarose gel was performed on cell extracts. WT:MU IKBKAP transcript ratios were determined using the integrated density value (IDV) obtained for each band and are shown beneath each lane. Primer sequences and PCR conditions have been previously described^4
Cell Culture and Treatment.
The IVS20^+6T→C mutation in IKBKAP leads to a frameshift and a premature termination codon in exon 21, which is expected to target the mutant transcript for decay via the nonsense-mediated mRNA decay (NMD) pathway^15. […] FD cells were exposed to cycloheximide, a translation inhibitor, to inhibit NMD of the mutant transcript^16.

[3] = system: IKBKAP splicing (WT:MU IKBKAP mRNA); test: WT:MU IKBKAP mRNA ratio by RT-PCR (IDV) in FD lymphoblast cell lines; drug screen; assay type: cell-based, human; details: for correct IKBKAP splicing / production of wild-type IKBKAP transcript in FD cells: 10 μM compound in DMSO, 72 hours, FD lymphoblast cell line
Protocol: Drug Screen. The panel of 1040 independent compounds used was specifically designed for the NINDS sponsored Neurodegeneration Drug Screening Consortium (MicroSource Discovery Systems). A single FD lymphoblast cell line was cultured in 24 well format and treated with 10 μM compound dissolved in DMSO for 72 hours. RNA was extracted using Tri-Reagent™ (Molecular Research Center) and reverse transcription and IKBKAP PCR was performed as previously described^4.
An assay that provides stable and consistent measurement of the ratio of WT:MU FD IKBKAP mRNA splice products in lymphoblast cell lines was developed^4. This assay was employed as part of the Neurodegeneration Drug Screening Consortium′ to identify compounds that increase the relative production of WT mRNA. A single, standard FD lymphoblast cell line was assayed after 72 hours in the presence of 10 μM test drug, using compounds dissolved in DMSO.

[4] = system: IKBKAP mRNA (WT, MU, total); test: Real-time quantitative PCR of IKBKAP transcripts in FD lymphoblast cells; assay type: cell-based, human; details: doses higher than 50 μM (data not shown)
IKAP protein = test: Western blot of IKAP protein in FD lymphoblast cell lines; assay type: cell-based, human; details: increasing concentrations of kinetin, 72 hours, FD lymphoblast cells
Description: Western Blot Analysis. […] Extracted protein was run on a 6% polyacrylamide gel. The samples were transferred to nitrocellulose and stained with Ponceau-S to visualize protein loading. IKAP was detected using a monoclonal antibody raised against amino acids 796-1008 of IKAP (BD Bioscience) that detects the 150 kD full-length IKAP protein. The same blot was probed with an antibody to insulin-degrading enzyme (IDE) as a protein loading control. Bands were quantitated using an Alpha 2000™ Image Analyzer.

FD lymphoblast cells = test: Cellular toxicity in FD lymphoblast cells; assay type: cell-based, human; details: 400 μM
Protocol: By contrast, total IKBKAP mRNA was relatively unaffected, with a slight increase (˜1.5 fold) being detected only at doses higher than 50 μM (data not shown).

[5] = system: FD (MU) IKBKAP minigene exon 20; test: IKBKAP minigene splicing assay, FD (MU) construct in HEK293 cells; assay type: cell-based, human; details: RT-PCR with T7 and BGH-R
Protocol: (§1) In Vivo IKBKAP Minigene Splicing Assay. IKBKAP genomic DNA was amplified from an unaffected and an FD individual using primers in exon 19 and 21: EX19F-5′-[…] (SEQ ID NO:6) and EX21R-5′-[…] (SEQ ID NO:7). The amplified products were cloned into pcDNA3.1/V5-His Topo (Invitrogen) and sequenced for verification. […] Minigene constructs were transiently transfected 12 hours later using Genejuice (Novagen) as directed by the manufacturer. After 48 hours RNA was isolated using the RNAeasy kit (Qiagen) and reverse transcribed using Superscript™ II reverse transcriptase (Invitrogen) as described^4. PCR was performed using vector specific primers: T7 ([…]) (SEQ ID NO:8) and BGHR ([…]) (SEQ ID NO:9), which amplify both WT and MU transcripts, or the MU specific primer EX19/21F ([…]) (SEQ ID NO:10) and BGH-R to specifically amplify only MU transcripts. PCR was performed as follows: 26 cycles of [94° C., 30 s; 56° C., 30 s; 72° C., 30 s] and products resolved on a 1.5% agarose gel and visualized by ethidium bromide staining.
(§2) These constructs were transfected into HEK293 cells and RNA was amplified using vector-specific primers to avoid amplification of the endogenous IKBKAP message. […] Introduction of the FD mutation into the construct increased exon 20 skipping as predicted.

[6] = system: WT IKBKAP minigene exon 20; test: IKBKAP minigene splicing assay, WT construct in HEK293 cells; assay type: cell-based, human; details: for inclusion of exon 20, WT minigene construct: RT-PCR with T7 and BGH-R
Protocol: as §1, §2

[7] = system: NF1 minigene (exons 35 to 37, C>T at 6724); test: NF1 minigene splicing assay in HEK293 cells; assay type: cell-based, human; details: HEK293 cells transfected with NF1 minigene, with vs without kinetin
Protocol: NF1 genomic DNA was amplified from an unaffected and an NF1 individual using primers at the 5′ end of exon 35 and the 3′ end of exon 37. […] The amplified products were cloned into pcDNA3.1/V5-His Topo (Invitrogen) and sequenced for verification. […] Minigene constructs were transiently transfected 12 hours later using Genejuice (Novagen) as directed by the manufacturer. After 48 hours RNA was isolated using the RNAeasy kit (Qiagen) and reverse transcribed using Superscript™ II reverse transcriptase (Invitrogen) as described^4. PCR was performed using vector specific primers: T7 ([…]) (SEQ ID NO:8) and BGHR ([…]) (SEQ ID NO:9), which amplify both WT and MU transcripts. PCR was performed as follows: 30 cycles of [94° C., 30 s; 58° C., 30 s; 72° C., 30 s] and products resolved on a 1.5% agarose gel and visualized by ethidium bromide staining.

SMN2 exon 7 = details: cited from earlier work
human skin fibroblasts = details: cultured human skin fibroblasts; cited from earlier work
MYO5A exon 31 splicing = details: reference 13; cited from earlier work

Question: For O=C(O)Cc1c[nH]c2ccccc12 [IAA, indoleacetic acid, reference compound], which “lipid peroxidation in liver and kidney tissue” value [1] is on record?
Answer: The value was “resulting in lipid peroxidation synthesis”.

Question: With C[C@@H]1C[C@@H]([C@H](O)CC2CC(=O)NC(=O)C2)C(=O)[C@@H](C)C1 [cycloheximide] as the compound, how does the “WT:MU IKBKAP transcript ratio, cycloheximide alone” value [2] read?
Answer: Its value is “decreasing the WT:MU transcript ratio”.

Question: Which “enhancement of inclusion of exon 20 in IKBKAP transcripts” value ([3]; by 100 μM, FD lymphoblast assay) does the source give for c1ccc(CNc2ncnc3nc[nH]c23)cc1 [benzyladenine, 6-benzylaminopurine] here?
Answer: Its value is “approximately 2 fold”.

Question: For c1coc(CNc2ncnc3nc[nH]c23)c1 [kinetin, 6-furfurylaminopurine], which “correct IKBKAP splicing / production of wild-type IKBKAP transcript in FD cells” value [3] is on record?
Answer: Its value is “dramatically enhanced correct splicing”.

Question: And the “correct IKBKAP splicing / production of wild-type IKBKAP transcript in FD cells” value ([3]; listed as Kinetin)?
Answer: Its value is “significantly increases production of wild-type IKBKAP transcript”.

Question: What about the “MU IKBKAP band by densitometry” value ([3]; 100 μM kinetin, RT-PCR gel) of the same compound?
Answer: The value was “barely discernable”.

Question: What about the “increase in total IKBKAP mRNA” value [4] of the same compound?
Answer: Its value is ~1.5 fold.

Question: What about the IKAP protein production (IKAP protein) of the same compound?
Answer: Its IKAP protein production is “increase in production of IKAP protein”.

Question: And the cellular toxicity (FD lymphoblast cells)?
Answer: The cellular toxicity was “some cellular toxicity”.

Question: And the “inclusion of exon 20, FD (MU) minigene construct” value [5]?
Answer: The value was “enhanced inclusion of exon 20”.

Question: What about the “inclusion of exon 20, FD (MU) minigene construct” value ([5]; listed as Kinetin) of the same compound?
Answer: The value was “enhances inclusion of exon 20”.

Question: And the “exon 20 skipping in WT construct transcripts (MU-specific PCR)” value ([6]; MU-specific primer EX19/21F)?
Answer: The value was “completely corrected; also recorded: absence of MU transcript in the WT lane”.

Question: What about the “inclusion of exon 20, WT minigene construct” value [6] of the same compound?
Answer: Its value is “enhanced inclusion of exon 20”.

Question: What about the “inclusion of exon 20, WT minigene construct” value ([6]; listed as Kinetin) of the same compound?
Answer: Its value is “enhances inclusion of exon 20”.

Question: And the “splicing of NF1 minigene” value [7]?
Answer: Its value is “altered splicing”.

Question: What about the “effect on exon 7 of SMN2” value (SMN2 exon 7) of the same compound?
Answer: Its value is “no effect on skipping of exon 7”.

Question: What about the “cellular changes associated with in vitro aging of human skin cells” value (human skin fibroblasts) of the same compound?
Answer: Its value is “delay or prevent a range of cellular changes”.

Question: What about the “maximum in vitro life span of human skin cells” value (human skin fibroblasts) of the same compound?
Answer: The value was “did not alter”.

Question: And the “toxicity when administered orally to rats” value [1]?
Answer: Its value is “much less toxicity as compared to indoleacetic acid”.

Question: Which results are given for CC[C@@]1(O)C[C@H](O[C@H]2C[C@H](N(C)C)[C@H](O[C@H]3C[C@H](O)[C@H](O[C@H]4CCC(=O)[C@H](C)O4)[C@H](C)O3)[C@H](C)O2)c2c(cc3c(c2O)C(=O)c2c(O)cccc2C3=O)[C@H]1C(=O)OC [aclarubicin, reference compound]?
Answer: correct IKBKAP splicing / production of wild-type IKBKAP transcript in FD cells [3]: no effect on IKBKAP splicing; inclusion of alternatively spliced exons in MYO5A (literature) (MYO5A exon 31 splicing): neither of these drugs promotes inclusion; effect on exon 7 of SMN2 (SMN2 exon 7): can promote the inclusion of exon 7

Question: With CC(C)=CCNc1ncnc2nc[nH]c12 [2iP, 6-(γ,γ-dimethyallylamino)purine, reference compound] as the compound, how does the “effect on WT:MU IKBKAP ratio” value ([3]; FD lymphoblast assay, tested at 1, 10, 50 and 100 μM) read?
Answer: The value was “neither zeatin nor 2iP (dissolved in DMSO at 10 mM) had any effect”.

Question: For CC(=CCNc1ncnc2nc[nH]c12)CO [zeatin, 6-(4-hydroxy-3-methylbut-2-enylamino)purine, reference compound], which “effect on WT:MU IKBKAP ratio” value [3] is on record?
Answer: The value was “neither zeatin nor 2iP (dissolved in DMSO at 10 mM) had any effect”.
